Target: T1, Slt35 (Escherichia coli, UniProt P41052)
T1 construct: gene mltB; N-terminal His-tag
T1 sequence (P41052 19-361): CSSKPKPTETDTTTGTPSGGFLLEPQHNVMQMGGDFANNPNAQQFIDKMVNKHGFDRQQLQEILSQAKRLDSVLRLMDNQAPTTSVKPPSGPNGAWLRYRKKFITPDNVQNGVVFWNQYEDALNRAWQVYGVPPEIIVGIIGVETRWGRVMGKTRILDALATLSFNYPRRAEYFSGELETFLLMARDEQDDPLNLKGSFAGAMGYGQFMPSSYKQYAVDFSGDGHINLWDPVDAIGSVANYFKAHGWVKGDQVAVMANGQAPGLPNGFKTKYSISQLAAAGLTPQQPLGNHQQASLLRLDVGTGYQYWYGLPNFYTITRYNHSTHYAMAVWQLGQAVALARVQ
Test: saturation transfer difference NMR ([…] compound, […] Slt35; weak; no inhibition up to […])
Format: binding

## OC[C@H]1NC[C@H](O)[C@@H](O)[C@@H]1O [1-deoxynojirimycin]
  saturation transfer difference NMR (5 mM compound, 20 μM Slt35); weak; no inhibit: weak enhancement of signals from 1-deoxynojirimycin on selective excitation of Slt35 (Figure S1), suggesting that this compound is capable of binding
